{
  "source": "patent US9730905B2",
  "about": "“Monounsaturated fatty acid for preventing and/or treating skin complexion imperfections” (L'OREAL, priority 2010, dated 2017)",
  "test_system": "skin tissue",
  "assay": "Inventors' demonstration of the effect of monounsaturated fatty acids on skin tissue and complexion",
  "settings": "in vivo",
  "data": [
    {"smiles": "CCCCCCCCCCC/C=C\\CCCCC(=O)O", "note": "[petroselinic acid]", "values": [
      {"measurement": "restoration of normal skin tissue / complexion", "result": "lead to a restoration of normal skin tissue in perfect homeostasis"}
    ]}
  ]
}
